This passage reports IC50, Activity and viability results from ChEMBL document CHEMBL4145533, “6,7-Dimorpholinoalkoxy quinazoline derivatives as potent EGFR inhibitors with enhanced antiproliferative activities against tumor cells” (Eur J Med Chem, 2018).

The structures appear in SMILES notation.

The test system of one assay is SW480. The assay can be described thus: Antiproliferative activity against human SW480 cells harboring wild type EGFR after 72 hrs by MTT assay. Type of assay: functional, cell-based. The note with it: SW480, 72 h.
For assay [1], the target named is Epidermal growth factor receptor (Homo sapiens, UniProt P00533, L858R/T790M). The assay can be described thus: Inhibition of EGFR L858R/T790M double mutant (unknown origin) using ULight-poly GT as substrate preincubated for 30 mins followed by substrate addition measured after 1 hr by spectrophotometric method.
The next assay concerns A-431. The assay can be described thus: Antiproliferative activity against human A431 cells harboring wild type EGFR after 72 hrs by MTT assay. The conditions noted are these: A-431, 72 h. Type of assay: functional, cell-based.
Assay [2] addresses Epidermal growth factor receptor (Homo sapiens, UniProt P00533, L858R). Briefly: Inhibition of EGFR L858R mutant (unknown origin) using ULight-poly GT as substrate preincubated for 120 mins followed by substrate addition measured after 2 hrs by spectrophotometric method.
The subject of another assay is HCC827. The assay can be described thus: Antiproliferative activity against human HCC827 cells harboring EGFR E746-A750 del mutant after 72 hrs by MTT assay. Type of assay: functional, cell-based. The conditions noted are these: HCC827, 72 h.
Assay [3] has as its system A549. Briefly: Antiproliferative activity against human A549 cells harboring wild type EGFR/K-ras mutant after 72 hrs by MTT assay. The note with it: A549, 72 h. The class given is functional, cell-based.
In the next assay the test system is NCI-H1975. Briefly: Antiproliferative activity against human NCI-H1975 cells harboring EGFR L858R/T790M double mutant after 72 hrs by MTT assay. Type of assay: functional, cell-based. The note with it: NCI-H1975, 72 h.
The target in assay [4] is Epidermal growth factor receptor (Homo sapiens, UniProt P00533, T790M). Briefly: Inhibition of EGFR T790M mutant (unknown origin) preincubated for 10 mins followed by TK substrate-botion addition measured after 1 hr by spectrophotometric method.
For assay [5], the system named is A549. The assay can be described thus: Induction of apoptosis in human A549 cells assessed as early apoptotic cells at 15 uM after 48 hrs by Annexin V-FITC/propidium iodide satining based FACS analysis (reference value: 2.78%). Type of assay: functional.
For assay [6], the system named is A549. Briefly: Induction of apoptosis in human A549 cells assessed as viable cells at 15 uM after 48 hrs by Annexin V-FITC/propidium iodide satining based FACS analysis (reference value: 95.87%). Type of assay: functional. The conditions noted are these: A549, 48 h, read-out: Activity.
Assay [7] concerns A549. The assay can be described thus: Induction of apoptosis in human A549 cells assessed as late apoptotic cells at 15 uM after 48 hrs by Annexin V-FITC/propidium iodide satining based FACS analysis (reference value: 1.21%). The class given is functional.
The test system of assay [8] is A549. Briefly: Cell cycle arrest in human A549 cells assessed as accumulation at S phase at 15 uM after 48 hrs by propidium iodide satining based FACS analysis (reference value: 34.45%). Type of assay: functional.
Assay [9] deals with A549. Briefly: Induction of apoptosis in human A549 cells assessed as necrotic cells at 15 uM after 48 hrs by Annexin V-FITC/propidium iodide satining based FACS analysis (reference value: 0.14%). The class given is functional.
The test system of assay [10] is A549. The assay can be described thus: Cell cycle arrest in human A549 cells assessed as accumulation at G0/G1 phase at 15 uM after 48 hrs by propidium iodide satining based FACS analysis (reference value: 48.87%). Type of assay: functional.

Sequence of Epidermal growth factor receptor (Homo sapiens, UniProt P00533, L858R/T790M) (P00533 25-1210 T790M/L858R limits assumed): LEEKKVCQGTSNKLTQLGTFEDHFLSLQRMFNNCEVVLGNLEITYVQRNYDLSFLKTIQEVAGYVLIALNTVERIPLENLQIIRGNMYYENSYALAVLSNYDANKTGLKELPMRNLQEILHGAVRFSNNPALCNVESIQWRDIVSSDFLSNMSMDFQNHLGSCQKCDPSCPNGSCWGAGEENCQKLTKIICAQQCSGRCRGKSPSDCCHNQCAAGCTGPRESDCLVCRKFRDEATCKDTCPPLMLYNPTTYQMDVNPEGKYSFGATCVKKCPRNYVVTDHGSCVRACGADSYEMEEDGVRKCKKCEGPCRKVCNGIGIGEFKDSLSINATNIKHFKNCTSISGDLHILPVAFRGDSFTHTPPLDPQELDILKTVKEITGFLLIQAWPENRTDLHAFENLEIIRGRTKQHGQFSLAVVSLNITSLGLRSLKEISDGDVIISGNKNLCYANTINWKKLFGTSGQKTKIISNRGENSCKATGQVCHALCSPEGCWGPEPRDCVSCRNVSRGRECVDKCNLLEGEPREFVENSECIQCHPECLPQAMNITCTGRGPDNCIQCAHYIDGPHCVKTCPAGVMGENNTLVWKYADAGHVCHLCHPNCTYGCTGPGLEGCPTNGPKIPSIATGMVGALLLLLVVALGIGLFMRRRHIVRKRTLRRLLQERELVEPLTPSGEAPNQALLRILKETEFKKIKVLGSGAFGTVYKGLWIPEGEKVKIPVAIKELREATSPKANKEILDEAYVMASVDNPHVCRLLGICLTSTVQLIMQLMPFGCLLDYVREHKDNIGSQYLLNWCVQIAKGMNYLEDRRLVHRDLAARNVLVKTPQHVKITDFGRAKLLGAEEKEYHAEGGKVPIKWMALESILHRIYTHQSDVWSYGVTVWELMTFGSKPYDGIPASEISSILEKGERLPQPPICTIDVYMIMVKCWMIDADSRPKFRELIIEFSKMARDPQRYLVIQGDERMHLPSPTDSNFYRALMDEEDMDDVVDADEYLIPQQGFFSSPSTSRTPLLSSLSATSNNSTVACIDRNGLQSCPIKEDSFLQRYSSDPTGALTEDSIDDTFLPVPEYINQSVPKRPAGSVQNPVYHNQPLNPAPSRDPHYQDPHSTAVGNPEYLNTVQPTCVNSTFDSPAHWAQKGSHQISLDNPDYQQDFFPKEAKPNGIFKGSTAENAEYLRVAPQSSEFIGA
Sequence of Epidermal growth factor receptor (Homo sapiens, UniProt P00533, T790M) (P00533 25-1210 T790M limits assumed): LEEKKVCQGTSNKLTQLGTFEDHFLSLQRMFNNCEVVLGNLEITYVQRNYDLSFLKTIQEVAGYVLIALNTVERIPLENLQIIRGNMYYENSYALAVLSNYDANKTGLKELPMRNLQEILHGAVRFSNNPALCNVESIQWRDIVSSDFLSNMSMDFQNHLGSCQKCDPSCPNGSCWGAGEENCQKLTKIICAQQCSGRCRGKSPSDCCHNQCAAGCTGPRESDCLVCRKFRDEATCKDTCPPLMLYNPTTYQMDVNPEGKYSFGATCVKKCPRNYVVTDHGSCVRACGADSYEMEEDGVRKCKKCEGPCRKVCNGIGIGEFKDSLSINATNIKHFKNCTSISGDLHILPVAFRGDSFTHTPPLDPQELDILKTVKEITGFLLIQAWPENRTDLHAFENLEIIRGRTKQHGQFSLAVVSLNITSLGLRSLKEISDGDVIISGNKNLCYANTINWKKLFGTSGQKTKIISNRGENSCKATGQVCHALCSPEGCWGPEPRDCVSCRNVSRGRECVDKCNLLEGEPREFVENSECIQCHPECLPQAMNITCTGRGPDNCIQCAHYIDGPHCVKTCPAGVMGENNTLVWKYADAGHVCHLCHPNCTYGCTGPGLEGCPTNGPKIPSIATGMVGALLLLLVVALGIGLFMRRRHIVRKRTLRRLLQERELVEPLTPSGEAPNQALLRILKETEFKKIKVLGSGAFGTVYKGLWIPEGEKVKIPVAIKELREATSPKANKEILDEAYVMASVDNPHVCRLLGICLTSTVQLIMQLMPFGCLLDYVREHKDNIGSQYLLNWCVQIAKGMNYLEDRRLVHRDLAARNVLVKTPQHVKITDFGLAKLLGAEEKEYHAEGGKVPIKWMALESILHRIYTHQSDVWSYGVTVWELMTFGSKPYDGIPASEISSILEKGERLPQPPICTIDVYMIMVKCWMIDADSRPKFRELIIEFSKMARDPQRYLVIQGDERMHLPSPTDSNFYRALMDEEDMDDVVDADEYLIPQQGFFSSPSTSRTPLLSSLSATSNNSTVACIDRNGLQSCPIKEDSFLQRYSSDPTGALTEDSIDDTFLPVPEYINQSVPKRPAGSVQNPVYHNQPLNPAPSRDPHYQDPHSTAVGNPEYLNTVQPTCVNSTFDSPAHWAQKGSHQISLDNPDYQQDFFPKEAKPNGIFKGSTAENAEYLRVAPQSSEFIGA
Sequence of Epidermal growth factor receptor (Homo sapiens, UniProt P00533, L858R) (P00533 25-1210 L858R limits assumed): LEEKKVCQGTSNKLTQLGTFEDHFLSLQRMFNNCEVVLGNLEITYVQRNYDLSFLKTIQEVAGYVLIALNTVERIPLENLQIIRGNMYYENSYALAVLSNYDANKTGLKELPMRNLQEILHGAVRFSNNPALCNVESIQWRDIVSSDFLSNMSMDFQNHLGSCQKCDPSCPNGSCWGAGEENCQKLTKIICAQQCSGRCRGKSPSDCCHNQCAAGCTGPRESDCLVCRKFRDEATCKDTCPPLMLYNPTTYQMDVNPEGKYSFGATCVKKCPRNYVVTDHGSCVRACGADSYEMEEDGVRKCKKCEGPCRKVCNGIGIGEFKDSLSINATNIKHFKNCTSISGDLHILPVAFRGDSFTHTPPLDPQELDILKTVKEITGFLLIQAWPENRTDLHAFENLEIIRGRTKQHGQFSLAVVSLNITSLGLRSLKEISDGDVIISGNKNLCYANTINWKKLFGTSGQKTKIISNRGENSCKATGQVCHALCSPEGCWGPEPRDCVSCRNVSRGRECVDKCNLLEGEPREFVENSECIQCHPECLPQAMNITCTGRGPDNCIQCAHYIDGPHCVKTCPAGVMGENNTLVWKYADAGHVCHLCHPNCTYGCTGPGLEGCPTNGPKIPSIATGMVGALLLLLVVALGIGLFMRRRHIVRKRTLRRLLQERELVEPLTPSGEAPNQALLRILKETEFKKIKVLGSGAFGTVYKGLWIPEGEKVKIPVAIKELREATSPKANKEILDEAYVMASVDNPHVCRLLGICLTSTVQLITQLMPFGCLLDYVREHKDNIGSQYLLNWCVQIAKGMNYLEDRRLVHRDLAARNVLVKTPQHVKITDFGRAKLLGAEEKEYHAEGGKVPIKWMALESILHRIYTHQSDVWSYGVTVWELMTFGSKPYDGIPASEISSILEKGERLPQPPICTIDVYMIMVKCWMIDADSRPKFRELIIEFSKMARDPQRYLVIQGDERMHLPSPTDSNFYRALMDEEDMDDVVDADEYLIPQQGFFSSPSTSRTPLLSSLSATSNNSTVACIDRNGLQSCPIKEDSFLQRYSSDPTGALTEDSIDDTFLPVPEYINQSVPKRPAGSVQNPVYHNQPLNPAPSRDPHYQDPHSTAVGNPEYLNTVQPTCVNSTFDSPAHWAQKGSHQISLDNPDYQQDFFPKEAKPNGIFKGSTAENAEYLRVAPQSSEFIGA

Consider `C/C=C/c1ccc(Nc2ncnc3cc(OCCCN4CCOCC4)c(OCCCN4CCOCC4)cc23)cc1`, for which the IC50 in the assay on SW480 is 6.08 µM; in assay [1], above 2 µM; with A-431 it was 1.35 µM; in [2] it was 0.235 µM; with HCC827, 0.29 µM; in the assay on A549 [3] it was 8.83 µM. For the same compound, the IC50 with NCI-H1975 was 5.53 µM; in assay [4] it was above 1 µM.
Consider `Fc1ccc(Nc2ncnc3cc(OCCN4CCOCC4)c(OCCN4CCOCC4)cc23)cc1Cl`, for which the IC50 with SW480 is 16.6 µM; in the assay with A-431, 10.4 µM; in the assay on HCC827, 0.05 µM; with A549 [3], 7.91 µM; with NCI-H1975, 20.4 µM.
As to `C#Cc1cccc(Nc2ncnc3cc(OCCCN4CCOCC4)c(OCCCN4CCOCC4)cc23)c1`, the IC50 with SW480 was found to be 5.39 µM; with A-431, 1.56 µM; with HCC827 it was 0.0066 µM; in the assay on A549 [3], 3.97 µM; in the assay with NCI-H1975 it was 3.1 µM.
Turning to `C#Cc1cccc(Nc2ncnc3cc(OCCN4CCOCC4)c(OCCN4CCOCC4)cc23)c1`, the IC50 in the assay on SW480 is 20.8 µM; in the assay with A-431 it was 5.41 µM; in the assay on HCC827, 0.05 µM; in the assay with A549 [3], 11.5 µM; with NCI-H1975, 23.1 µM.
Taken in the same sequence, the figures for `C/C=C/c1ccc(Nc2ncnc3cc(OCCN4CCOCC4)c(OCCN4CCOCC4)cc23)cc1` were 29.2 µM, 10.1 µM, 1.86 µM, 14.1 µM and 89.3 µM.
On the same counts, the results for `Fc1cccc(COc2ccc(Nc3ncnc4cc(OCCN5CCOCC5)c(OCCN5CCOCC5)cc34)cc2Cl)c1` are 8.82 µM, 3.62 µM, 0.32 µM, 5.81 µM and 12.2 µM.
For `CS(=O)(=O)CCNCc1ccc(-c2ccc3ncnc(Nc4ccc(OCc5cccc(F)c5)c(Cl)c4)c3c2)o1` [LAPATINIB], the IC50 in the assay with SW480 was 12.6 µM; in the assay on A-431, 4.8 µM; with HCC827, 0.6 µM; in the assay with A549 [3], 14.9 µM; with NCI-H1975, 12.7 µM. Further, the Activity in the assay on A549 [5] was found to be 4.56%; with A549 [7], 6.27%; in the assay on A549 [8], 23.89%; in the assay on A549 [9], 1.5%; in the assay with A549 [10], 67.5%. Besides, the viability at 15 µM in the assay with A549 [6] stood at 87.7%.
Take `Fc1ccc(Nc2ncnc3cc(OCCCN4CCOCC4)c(OCCCN4CCOCC4)cc23)cc1Cl`: the IC50 with SW480 was determined as 3.54 µM; in the assay on A-431, 2.01 µM; with HCC827, 0.0078 µM; with A549 [3], 3.03 µM; in the assay on NCI-H1975, 4.45 µM.
